The target of one data set is T1, PPARδ (Homo sapiens, UniProt Q03181).
T1 sequence (Q03181 1-441): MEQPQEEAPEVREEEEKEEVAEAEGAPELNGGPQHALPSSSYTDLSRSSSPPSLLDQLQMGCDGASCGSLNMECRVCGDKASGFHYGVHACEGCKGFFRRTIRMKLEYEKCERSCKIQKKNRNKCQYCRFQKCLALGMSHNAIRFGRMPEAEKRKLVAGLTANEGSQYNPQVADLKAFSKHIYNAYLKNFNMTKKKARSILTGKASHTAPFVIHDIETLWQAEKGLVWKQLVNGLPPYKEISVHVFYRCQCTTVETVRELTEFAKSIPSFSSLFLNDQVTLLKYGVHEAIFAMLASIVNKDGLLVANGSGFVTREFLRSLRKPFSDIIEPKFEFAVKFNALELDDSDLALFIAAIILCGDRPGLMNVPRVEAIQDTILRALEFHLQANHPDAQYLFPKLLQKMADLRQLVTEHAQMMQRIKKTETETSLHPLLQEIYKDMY
Description: NR selectivity assay PPARδ. To be noted: unnamed ref standard 0.004 μM.

Data set [1] addresses T2, hTGR5 (Homo sapiens, UniProt Q8TDU6).
T2 sequence (Q8TDU6 1-330): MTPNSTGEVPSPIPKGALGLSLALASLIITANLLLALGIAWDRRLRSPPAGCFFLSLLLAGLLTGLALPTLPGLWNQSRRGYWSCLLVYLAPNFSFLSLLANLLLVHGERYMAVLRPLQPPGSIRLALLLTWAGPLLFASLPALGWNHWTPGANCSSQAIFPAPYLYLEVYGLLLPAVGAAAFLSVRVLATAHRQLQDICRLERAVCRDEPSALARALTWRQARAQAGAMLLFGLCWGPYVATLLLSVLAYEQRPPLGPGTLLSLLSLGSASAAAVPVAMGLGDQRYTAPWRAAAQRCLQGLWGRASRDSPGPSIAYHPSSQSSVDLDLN
Description: FRET (cAMP) level in NCI-H716 human intestinal cell line. Format: cell-based. As for the experimental part: (§1) EC50 values were determined by probit analysis.
(§2) The selectivity of compounds of the invention was evaluated using assay methods known in the art. Specifically, the following assay methods were used: • FXR and LXR: Coactivator Recruitment (alphascreen); • TGR5: cAMP level on human intestinal cell line (NCI-H716); • PXR: Ligands Competition assay (Binding Assay) • CAR: Coactivator Recruitment (Lanthascreen)

In another data set the test system is HepG2 cell. Description: HepG2 cell cytotoxicity, ATP decrease. Format: cell-based. To be noted: human. As for the experimental part:
(§3) Compounds of the invention were evaluated for cytotoxicity using standard methods known in the art. Specifically, cytotoxicity was evaluated using HEPG2 cells and monitoring ATP decrease and determining the EC50 value. […]

Data set [2] in a line: HepG2 cell cytotoxicity, ATP decrease. The class given is cell-based. To be noted: human. As for the experimental part:
as §3

For data set [3], the target named is T2, hTGR5. Description: Transactivation assay (CRE-driven luciferase reporter) on hTGR5. The class given is cell-based. As for the experimental part:
CHO cells were plated in 96-well plates at a density of 3.5×10^4 cells/well, cultured for 24 h, and then transfected with 150 ng of human (h) TGR5 expression plasmid (pCMVSPORT6/hTGR5) and 100 ng of cAMP-responsive element (CRE)-driven luciferase reporter plasmid (pCRE-Luc) in each well using Lipofectamine 2000 reagent (Invitrogen) according to the manufacturer's instructions. After 6 h incubation, cells were washed once with phosphate-buffered saline (PBS) and medium was exchanged for DMEM containing 0.1% (w/v) bovine serum albumin (BSA). After incubation for another 18 h, cells were treated for 5 h with different concentrations of each compound in fresh DMEM containing 0.1% (w/v) BSA.
For β-galactosidase assays, 10 μl of cell lysate was mixed with 100 μl of Buffer Z [60 mM Na2HPO4, 10 mM KCl, 1 mM MgSO4, 50 mM β-mercaptoethanol and 0.75 mg/ml o-nitrophenyl-β-D-galactopyranoside (ONPG)] and incubated at 37° C. for 0.5-3 h. Reactions were stopped by adding 50 μl of Stop buffer (1M Na2CO3) and the optical density at 420 nm was determined.
as §1
In general terms: A reporter such as luciferase makes a cellular process visible.

In a further data set the target is T3, hFXR (Homo sapiens, UniProt Q96RI1).
T3 sequence (Q96RI1 1-486): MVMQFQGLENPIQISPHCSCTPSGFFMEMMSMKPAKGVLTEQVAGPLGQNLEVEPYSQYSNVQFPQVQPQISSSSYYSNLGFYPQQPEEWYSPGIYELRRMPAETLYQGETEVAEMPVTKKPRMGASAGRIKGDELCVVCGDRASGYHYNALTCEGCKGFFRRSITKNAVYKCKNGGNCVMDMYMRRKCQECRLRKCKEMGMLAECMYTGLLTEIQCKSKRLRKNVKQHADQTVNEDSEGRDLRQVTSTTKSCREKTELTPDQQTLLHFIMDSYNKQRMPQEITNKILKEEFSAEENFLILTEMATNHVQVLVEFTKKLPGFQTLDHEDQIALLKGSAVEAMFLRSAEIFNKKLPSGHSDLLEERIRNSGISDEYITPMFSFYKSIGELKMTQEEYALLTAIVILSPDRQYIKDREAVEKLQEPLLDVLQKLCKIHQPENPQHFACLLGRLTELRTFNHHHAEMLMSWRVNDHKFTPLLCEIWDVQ
Description: Alphascreen coactivator recruitment assay on hFXR. Format: biochemical. As to the method: as §2
A general note: Alpha assays give light when donor and acceptor beads are brought close together.

Data set [4] can be described thus: 1-Octanol/water partition coefficient (shake-flask). To be noted: ionized species, pH 8. Format: physicochemical. As for the experimental part:
Since the sulphate and sulphonated analogues are always ionised at all pH values the octanol/water partition coefficient was measured for all molecules in ionized form. 1-Octanol/water partition coefficient (log P) was evaluated using a conventional shake-flask procedure. […] The aqueous buffer was previously pre-saturated with 1-octanol, 5 ml of 1-octanol pre-saturated with water was then added and the samples were left to equilibrate for 2 weeks under continuous stirring at room temperature After centrifugation the two phases were carefully separated. BA concentration in the water phase was measured with HPLC-ESI ? MS/MS using C18 column (150 mm×2 mm i.d., 4 μm) and, as mobile phases, water containing 15 mM acetic acid pH 5 and acetonitrile. The flow rate was 150 μal/min and the column was maintained at 45° C. The mass spectrometry acquisition was performed in the multiple reaction monitoring mode using the ESI source in negative ionization.

In a further data set the target is T4, CAR (Homo sapiens, UniProt Q14994).
T4 sequence (Q14994 1-352): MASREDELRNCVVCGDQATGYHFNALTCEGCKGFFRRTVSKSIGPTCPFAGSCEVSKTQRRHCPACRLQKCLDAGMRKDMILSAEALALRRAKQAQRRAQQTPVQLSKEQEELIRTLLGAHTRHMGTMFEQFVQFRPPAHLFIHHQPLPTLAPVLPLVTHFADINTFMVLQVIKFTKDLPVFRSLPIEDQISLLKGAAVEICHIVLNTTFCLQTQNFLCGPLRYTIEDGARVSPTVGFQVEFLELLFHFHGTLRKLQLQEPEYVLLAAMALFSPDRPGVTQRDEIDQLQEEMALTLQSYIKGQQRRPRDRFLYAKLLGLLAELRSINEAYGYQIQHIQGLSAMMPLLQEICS
Kind of data set: CAR coactivator recruitment (Lanthascreen). The class given is biochemical. As to the method:
as §2
A general note: Time-resolved FRET reads energy transfer from a long-lived donor to a nearby acceptor.

[5] abbreviates: NR selectivity table, coactivator recruitment (alphascreen), ref standard CDCA, read-out: FXR EC50.
The mark [6] stands for this setting: Table 1, reference standard CDCA, read-out: Alphascreen Assay hFXR EC50.

The structures appear in SMILES notation. Several values for one entry are separate records, joined by “and”; a condition that tells them apart may be missing. Identical values can stand only once. Counter-ions that a name gives are not always drawn. Like-named read-outs stand apart in the source and are kept apart here.

The term EC50 denotes the midpoint of the concentration-response curve. On to `CCC1C(O)C2C3CCC(C(C)CC(C)OS(=O)(=O)O)C3(C)CCC2C2(C)CCC(O)CC12` [Compound 2A, 3α,7α,23-trihydroxy-6α-ethyl-23(S)-methyl-24-nor-5β-cholan-23-sulfate Sodium Salt], for which the “PPARδ EC50” value at PPARδ is reported as “No”. Further, the concentration giving a half-maximal response (EC50) is 1.6 ± 0.3 µM at hTGR5 [1]; > 1000 µM in the data set on HepG2 cell; > 1000 µM in data set [2]; 1.2 µM on hTGR5 [3]; 0.14 µM at hFXR (setting [5]); 0.145 ± 0.05 µM at hFXR (setting [6]). The molecule also yielded an EC50 on CAR of 84 µM. Moreover, the “LogPA- (1-octanol-water partition coefficient)” value in data set [4] was determined as 2.3.

Turning to `CC[C@H]1[C@@H](O)[C@@H]2[C@H](C[C@H](O)[C@]3(C)[C@@H]([C@H](C)CCCS(=O)(=O)[O-])CC[C@@H]23)[C@@]2(C)CC[C@@H](O)C[C@@H]12.[Na+]` [Compound 3A, 3α,7α,12α-trihydroxy-6α-ethyl-5β-cholan-24-sulfonate Sodium Salt], the “PPARδ EC50” value at PPARδ was “No”. In addition, the EC50 is 0.7 ± 0.2 µM at hTGR5 [1]; > 1000 µM in the data set on HepG2 cell; > 1000 µM in data set [2]; 0.6 µM on hTGR5 [3]; 7 µM on hFXR (setting [5]); 7 ± 3 µM at hFXR (setting [6]). Moreover, on CAR, the EC50 was > 250 µM. The “LogPA- (1-octanol-water partition coefficient)” value in data set [4] (Sodium Salt) was 0.71 and 0.7.

The values are drawn from patent US8796249B2, “TGR5 modulators and methods of use thereof” (Intercept Pharmaceuticals, Inc., priority 2008, dated 2014).
